Structures are written as SMILES. Bounds are passed on as bounds.

Our source for the IC50 values is US7846945B2, “Piperdine-based inhibitors of sodium glucose co-transporter 2 and methods of their use” (Lexicon Pharmaceuticals, Inc., priority 2007, dated 2010).

This experiment has as its target T1, Human sodium/glucose co-transporter type 2 (SGLT2) (Homo sapiens, UniProt P31639).
T1 construct: HA; expressed in transfected cells
T1 sequence (P31639 1-672): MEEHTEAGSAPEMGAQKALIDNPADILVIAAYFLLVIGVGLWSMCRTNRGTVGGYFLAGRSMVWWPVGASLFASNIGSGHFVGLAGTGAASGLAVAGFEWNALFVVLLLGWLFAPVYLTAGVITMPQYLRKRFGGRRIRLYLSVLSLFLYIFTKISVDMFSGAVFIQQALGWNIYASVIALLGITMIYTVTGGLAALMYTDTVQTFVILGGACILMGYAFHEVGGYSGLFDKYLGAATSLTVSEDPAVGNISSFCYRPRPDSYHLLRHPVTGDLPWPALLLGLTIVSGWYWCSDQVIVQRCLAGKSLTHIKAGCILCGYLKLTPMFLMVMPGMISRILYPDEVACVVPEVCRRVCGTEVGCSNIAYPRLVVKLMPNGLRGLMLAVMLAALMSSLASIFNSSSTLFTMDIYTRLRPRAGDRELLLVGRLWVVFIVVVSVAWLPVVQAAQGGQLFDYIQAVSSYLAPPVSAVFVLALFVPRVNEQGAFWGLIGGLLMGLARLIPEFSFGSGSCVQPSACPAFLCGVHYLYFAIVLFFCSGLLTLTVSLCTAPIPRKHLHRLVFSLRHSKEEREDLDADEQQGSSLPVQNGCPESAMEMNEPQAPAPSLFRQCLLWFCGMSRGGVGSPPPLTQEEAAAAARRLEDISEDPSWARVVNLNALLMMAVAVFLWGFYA
Briefly: In vitro human SGLT2 inhibition assay (14C-AMG uptake). Format: cell-based. To be noted: HEK293 cells expressing human HA-SGLT2; potent = SGLT2 IC50 of less than about 500 nM; read-out: SGLT2 IC50 (potent SGLT2 inhibitor mark). As for the experimental part:
HEK293 cells were transfected with the human HA-SGLT2-pIRESpuro2 vector and the bulk stable cell line was selected in presence of 0.5 μg/ml of puromycin. Human HA-SGLT2 cells were maintained in DMEM media containing 10% FBS, 1% GPS and 0.5 μg/ml of puromycin.
The HEK293 cells expressing the human HA-SGLT2 were seeded in 384 well plates (30,000 cells/well) in DMEM media containing 10% FBS, 1% GPS and 0.5 μg/ml of puromycin, then incubated overnight at 37 C, 5% CO2. Cells were then washed with uptake buffer (140 mM NaCl, 2 mM KCl, 1 mM CaCl2, 1 mM MgCl2, 10 mM HEPES, 5 mM Tris, 1 mg/ml bovine serum albumin (BSA), pH 7.3). Twenty microliters of uptake buffer with or without testing compounds were added to the cells. Then, 20 microliters of uptake buffer containing ^14C-AMG (100 nCi) were added to the cells. The cell plates were incubated at 37° C., 5% CO2 for 1-2 hours. After washing the cells with uptake buffer, scintillation fluid was added (40 microliters/well) and ^14C-AMG uptake was measured by counting radioactivity using a scintillation coulter (TopCoulter NXT; Packard Instruments).
The IC50 of a compound with regard to a given target is determined by fitting the relevant data, using the Levenburg Marquardt algorithm, to the equation: y=A+((B−A)/(1+((C/x)^D))) wherein A is the minimum y value; B is the maximum y value; C is the IC50; and D is the slope.

The IC50 is the point on the concentration scale where inhibition reaches its midpoint. On to `CCOc1ccc(Cc2cc([C@H]3[C@H](O)[C@@H](O)[C@H](O)CN3C(C)=O)ccc2Cl)cc1` [1-{(2S,3S,4S,5R)-2-[4-Chloro-3-(4-ethoxy-benzyl)-phenyl]-3,4,5-trihydroxy-piperidin-1-yl}-ethanone], for which the IC50 was below 500 nM.
With `CCOc1ccc(Cc2cc([C@@H]3O[C@H](SCC(N)=O)[C@@H](O)[C@H](O)[C@H]3O)ccc2Cl)cc1` [2-{(2R,3S,4R,5R,6S)-6-[4-Chloro-3-(4-ethoxy-benzyl)-phenyl]-3,4,5-trihydroxy-tetrahydro-pyran-2-ylsulfanyl}-acetamide] the figure was below 500 nM; with `CCOc1ccc(Cc2cc([C@H]3[C@H](O)[C@@H](O)[C@H](O)CN3CC(N)=O)ccc2Cl)cc1` [2-{(2S,3S,4S,5R)-2-[4-Chloro-3-(4-ethoxy-benzyl)-phenyl]-3,4,5-trihydroxy-piperidin-1-yl}-acetamide], below 500 nM.
As for `CCOc1ccc(-c2cccc([C@@H]3OC(OC)[C@@H](O)[C@H](O)[C@H]3O)c2)cc1` (stereo partly drawn) [(2S,3R,4R,5S)-2-(4′-Ethoxy-biphenyl-3-yl)-6-methoxy-tetrahydro-pyran-3,4,5-triol], the figure is below 500 nM.
As for `CCOc1ccc(Cc2cc([C@@H]3OC(OC)[C@@H](O)[C@H](O)[C@H]3O)ccc2C)cc1` (stereo partly drawn) [(2S,3R,4R,5S)-2-[3-(4-Ethoxy-benzyl)-4-methyl-phenyl]-6-methoxy-tetrahydro-pyran-3,4,5-triol], the figure is below 500 nM.
As for `CCOc1ccc(Cc2cccc([C@@H]3OC(OC)[C@@H](O)[C@H](O)[C@H]3O)c2)cc1` (stereo partly drawn) [(2S,3R,4R,5S)-2-[3-(4-Ethoxy-benzyl)-phenyl]-6-methoxy-tetrahydro-pyran-3,4,5-triol], the IC50 is below 500 nM.
With `CCOc1ccc(Cc2cc([C@@H]3OC(OCC(F)(F)F)[C@@H](O)[C@H](O)[C@H]3O)ccc2Cl)cc1` (stereo partly drawn) [(2S,3R,4R,5S)-2-[4-Chloro-3-(4-ethoxy-benzyl)-phenyl]-6-(2,2,2-trifluoro-ethoxy)-tetrahydro-pyran-3,4,5-triol] the figure was below 500 nM; with `CCOc1ccc(Cc2cc([C@@H]3OC(OCC(O)CO)[C@@H](O)[C@H](O)[C@H]3O)ccc2Cl)cc1` (stereo partly drawn) [(2S,3R,4R,5S)-2-[4-Chloro-3-(4-ethoxy-benzyl)-phenyl]-6-(2,3-dihydroxy-propoxy)-tetrahydro-pyran-3,4,5-triol], below 500 nM.
As for `CCOc1ccc(Cc2cc([C@@H]3OC(OCCN(C)C)[C@@H](O)[C@H](O)[C@H]3O)ccc2Cl)cc1` (stereo partly drawn) [(2S,3R,4R,5S)-2-[4-Chloro-3-(4-ethoxy-benzyl)-phenyl]-6-(2-dimethylamino-ethoxy)-tetrahydro-pyran-3,4,5-triol], the figure is below 500 nM; as for `CCOc1ccc(Cc2cc([C@@H]3OC(OCCS)[C@@H](O)[C@H](O)[C@H]3O)ccc2Cl)cc1` (stereo partly drawn) [(2S,3R,4R,5S)-2-[4-Chloro-3-(4-ethoxy-benzyl)-phenyl]-6-(2-mercapto-ethoxy)-tetrahydro-pyran-3,4,5-triol], below 500 nM.
Consider `CCOc1ccc(Cc2cc([C@@H]3OC(OCCOC)[C@@H](O)[C@H](O)[C@H]3O)ccc2Cl)cc1` (stereo partly drawn) [(2S,3R,4R,5S)-2-[4-Chloro-3-(4-ethoxy-benzyl)-phenyl]-6-(2-methoxy-ethoxy)-tetrahydro-pyran-3,4,5-triol], for which the IC50 is below 500 nM.
Consider `CCOc1ccc(Cc2cc([C@@H]3OC(OCCCO)[C@@H](O)[C@H](O)[C@H]3O)ccc2Cl)cc1` (stereo partly drawn) [(2S,3R,4R,5S)-2-[4-Chloro-3-(4-ethoxy-benzyl)-phenyl]-6-(3-hydroxy-propoxy)-tetrahydro-pyran-3,4,5-triol], for which the IC50 is below 500 nM.
With `CCCSC1O[C@@H](c2ccc(Cl)c(Cc3ccc(OCC)cc3)c2)[C@H](O)[C@@H](O)[C@@H]1O` (stereo partly drawn) [(2S,3R,4R,5S)-2-[4-Chloro-3-(4-ethoxy-benzyl)-phenyl]-6-propylsulfanyl-tetrahydro-pyran-3,4,5-triol], the IC50 is below 500 nM.
As for `COc1ccc(Sc2cc([C@@H]3OC(OC)[C@@H](O)[C@H](O)[C@H]3O)ccc2Cl)cc1` (stereo partly drawn) [(2S,3R,4R,5S)-2-[4-Chloro-3-(4-methoxy-phenylsulfanyl)-phenyl]-6-methoxy-tetrahydro-pyran-3,4,5-triol], the figure is below 500 nM.
As for `COC1O[C@@H](c2ccc(Cl)c(Cc3ccc(OCCOCc4ccccc4)cc3)c2)[C@H](O)[C@@H](O)[C@@H]1O` (stereo partly drawn) [(2S,3R,4R,5S)-2-{3-[4-(2-Benzyloxy-ethoxy)-benzyl]-4-chloro-phenyl}-6-methoxy-tetrahydro-pyran-3,4,5-triol], the figure is below 500 nM; as for `COC1O[C@@H](c2cccc(Cc3ccc(OCCO)cc3)c2)[C@H](O)[C@@H](O)[C@@H]1O` (stereo partly drawn) [(2S,3R,4R,5S)-2-{3-[4-(2-Hydroxy-ethoxy)-benzyl]-phenyl}-6-methoxy-tetrahydro-pyran-3,4,5-triol], below 500 nM; as for `COC1O[C@@H](c2ccc(Cl)c(Cc3ccc(OC4CCN(C)CC4)cc3)c2)[C@H](O)[C@@H](O)[C@@H]1O` (stereo partly drawn) [(2S,3R,4R,5S)-2-{4-Chloro-3-[4-(1-methyl-piperidin-4-yloxy)-benzyl]-phenyl}-6-methoxy-tetrahydro-pyran-3,4,5-triol], below 500 nM.
With `COc1cc(Oc2ccc(Cc3cc([C@@H]4OC(OC)[C@@H](O)[C@H](O)[C@H]4O)ccc3Cl)cc2)nc(OC)n1` (stereo partly drawn) [(2S,3R,4R,5S)-2-{4-Chloro-3-[4-(2,6-dimethoxy-pyrimidin-4-yloxy)-benzyl]-phenyl}-6-methoxy-tetrahydro-pyran-3,4,5-triol] the figure was below 500 nM; with `COC1O[C@@H](c2ccc(Cl)c(Cc3ccc(OCCO)cc3)c2)[C@H](O)[C@@H](O)[C@@H]1O` (stereo partly drawn) [(2S,3R,4R,5S)-2-{4-Chloro-3-[4-(2-hydroxy-ethoxy)-benzyl]-phenyl}-6-methoxy-tetrahydro-pyran-3,4,5-triol], below 500 nM.
`COCCOc1ccc(Cc2cc([C@@H]3OC(OC)[C@@H](O)[C@H](O)[C@H]3O)ccc2Cl)cc1` (stereo partly drawn) [(2S,3R,4R,5S)-2-{4-Chloro-3-[4-(2-methoxy-ethoxy)-benzyl]-phenyl}-6-methoxy-tetrahydro-pyran-3,4,5-triol]: the IC50 was below 500 nM.
As for `COC1O[C@@H](c2ccc(Cl)c(Cc3ccc(OCCSC)cc3)c2)[C@H](O)[C@@H](O)[C@@H]1O` (stereo partly drawn) [(2S,3R,4R,5S)-2-{4-Chloro-3-[4-(2-methylsulfanyl-ethoxy)-benzyl]-phenyl}-6-methoxy-tetrahydro-pyran-3,4,5-triol], the figure is below 500 nM; as for `COC1O[C@@H](c2ccc(Cl)c(Cc3ccc(O[C@H]4CCN(C)C4)cc3)c2)[C@H](O)[C@@H](O)[C@@H]1O` (stereo partly drawn) [(2S,3R,4R,5S)-2-{4-Chloro-3-[4-((S)-1-methyl-pyrrolidin-3-yloxy)-benzyl]-phenyl}-6-methoxy-tetrahydro-pyran-3,4,5-triol], below 500 nM; as for `COC1O[C@@H](c2ccc(Cl)c(Cc3ccc(Oc4ccncc4)cc3)c2)[C@H](O)[C@@H](O)[C@@H]1O` (stereo partly drawn) [(2S,3R,4R,5S)-2-{4-Chloro-3-[4-(pyridin-4-yloxy)-benzyl]-phenyl}-6-methoxy-tetrahydro-pyran-3,4,5-triol], below 500 nM.
As for `COC1O[C@@H](c2ccc(Cl)c(Cc3ccc(Oc4cncnc4)cc3)c2)[C@H](O)[C@@H](O)[C@@H]1O` (stereo partly drawn) [(2S,3R,4R,5S)-2-{4-Chloro-3-[4-(pyrimidin-5-yloxy)-benzyl]-phenyl}-6-methoxy-tetrahydro-pyran-3,4,5-triol], the figure is below 500 nM.
